Laboratory results published in patent US20240140953A1, “INHIBITORS OF MENIN-MLL INTERACTION” (BIOMEA FUSION, INC., priority 2018, published 2024).
Where two headings read alike, the source gives them in different places.

Tests used:
MV4-11 (MLL-AF4) = assay: LTP assay, CellTiterGlo, T4-T14 (Example 103), MV4-11; format: cell-based, human; details: for inhibition of cell viability (in words): MV4-11, LTP assay
Procedure: (§1) The day of the experiment (T0) all the cell line suspensions were counted by Cell Viability Analyser, Vi-CELL and properly diluted with fresh medium to obtain the cell density reported in the Test System paragraph.
(§2) Cells were tested after 4 passages after thawing.
(§3) 200 μL/well and 150 μL/well of cell suspension were added into the 0.4 μL/well and 0.3 μL/well compound plates, respectively. • Cell plate containing 200 μL/well suspension was incubated at 37° C. in a humidified incubator with 5% CO2. • From each well of the 150 μL/well cell assay plate, 100 μL were harvested and transferred into a 96-well Optiplate (Perkin Elmer, Cat. n. 6005290) and cell viability was measured as described in 4.3 paragraphs (T0).
(§4) After four days in culture (T4) 150 μL/well of fresh medium were added into a new 0.3 μL/well copy compound plate. • From each well of the 200 μL/well cell assay plate: • 100 μL were sampled for the cell viability measurement as described in 4.3 paragraphs (T4). • 50 μL were harvested and added to the 150 μL/well compound plate prepared as described in the first point to dilute 1:4 the cell suspension. • The cell assay plate diluted and containing 200 μL/well suspension were incubated at 37° C. in a humidified incubator with 5% Co2.
(§5) At T7-T11-T14 it was proceeded as described in T4, with the exception that no further cell dilution was carried out at T14.
(§6) Plates containing the samples to be tested were equilibrated at room temperature for approximately 30 min and then 30 μL/well of the Promega CellTiterGlo® reagent were added.
(§7) Contents will be mixed for 5 min on an orbital shaker to induce cell lysis and then incubated at room temperature for an additional 10 min to stabilize the luminescent signal.
(§8) Luminescence was read by using VictorV (Perkin Elmer) multilabel plate reader using the standard protocol for luminescence in 96 well plate.
(§9) Data were expressed as % of inhibition compared to the 0.2% DMSO negative control, and was calculated as follows: […]
(§10) CRCs were analysed by GraphPad and IC50 values were calculated by non-linear regression using 4 parameter-logistic equation. IC50 (μM) values were reported in the final data table.
(§11) The curve fittings were performed leaving free all the parameters. Any constrain were reported in the results table.

MOLM-13 (MLL-AF9) = assay: Proliferation study, CellTiterGlo, 4 days (Example 102), MOLM-13; format: cell-based, human; details: MOLM-13, 4 days treatment; for IC50: Homo sapiens, 96 h, CellTiterGlo; for MOLM-13 (MLL-AF9) % max: maximal inhibition
Excerpt: The objective of the study was to evaluate the ability of representative compounds of the present invention, inhibitors of Menin/MLL interaction to inhibit cell proliferation. The proliferation inhibitory effect was investigated in two human MLL-leukemia cells selected on the bases of MLL fusion protein and listed in Table 102. HL-60 cell line was used as negative control.
ATP is present in all metabolically active cells and is considered as a marker for cell viability and proliferation. The metabolic cell activity was determined using the CellTiter-Glo kit from Promega, an ATP monitoring system based on the production of luminescence by the reaction of ATP with added UltraGlo® recombinant luciferase (Kawano et al., 2016), according to the supplier's experimental recommendations.
The described assay evaluates the ability of 4 representative compounds to inhibit the cell proliferation in the human MLL-leukemia cells plus a negative control cell line.
The assay provides potency values (IC50) for each test compound at a single time point Day 4 (T4).
Seven concentrations of the compounds (2.00E-05-6.67E-06-2.22E-06-7.41E-07-2.47E-07-8.23E-08-2.74E-08M), were assessed in duplicate in an individual test occasion in all the cell lines. MI-503 (Borkin et al., 2015) was used as reference compound and was tested at the same concentrations as the NCEs. 100% of proliferation is represented by the untreated cells (0.2% DMSO). The cell growth was monitored up to 4 days in culture.
MV4-11, MOLM-13 and HL-60 cells (see Table 2) were maintained in RPMI-1640 medium (Invitrogen, Cat. n. 618700, Batch n. 1965930) supplemented with 10% of Heat Inactivated FBS (Invitrogen, Cat n. 10500, Batch n. 08Q8078K) and 1% Pen-Strep (Invitrogen, Cat. N. 15140, Batch n. 1910859) and cultured at 37° C. in a humidified incubator with 5% CO2. All the cell lines grow in suspension and the cell density was maintained in a range of 2×10^5-1×10^6 viable cells/ml. Cells were pelleted at 130 g×5 min and conditioned medium was used to dilute the cell suspension.
Test items were dissolved in glass vials at 10 mM in DMSO with purity ≥99.9% (Sigma, D8418, batch n. SHBH4245V) and stored at −20° C. in 1.5 mL Eppendorf tubes.
Serial dilutions 1 to 3 in DMSO 100% were prepared starting from a 10 mM stock solutions to generate 7 points concentration response curve (CRC).
For each plate to test, one 0.4 μL copy plate and four 0.3 μL copy plates were then stamped into 96-well plates not treated for cell adhesion (Sarstedt—cat.no. 82.1581.001) by acoustic liquid Handling, Echo, at a concentration which was 500 fold the final assay concentration. Stamped plates were stored at −20° C. The final concentrations for the reference compound, MI-503, and the test items were: 2.00E-05, 6.67E-06, 2.22E-06, 7.41E-07, 2.47E-07, 8.23E-08 and 2.74E-08 M.
Cells were plated in 96-well flat bottom microtiter plates at cell density of 15,000 cells/ml for HL-60, 1000 cells/ml for MOLM-13 and 10,000 cell/ml for MV4-11. Cells were treated with 0.2% DMSO (Sigma, D8418, batch n. SHBH4245V) or serial dilutions of compounds (0.027 μM-20 μM) in DMSO (0.2% final concentration). Cells were incubated in a 5% CO2 incubator at 37° C. for 4 days. A CellTiterGlo viability assay (Promega) was employed. Luminescence was read by using VictorV (Perkin Elmer) multilabel plate reader using the standard protocol for luminescence in 96 well plate. The experiment was performed in duplicate.
as §9
CRCs were analysed by GraphPad and IC50 values were calculated by non-linear regression using 4 parameter-logistic equation. IC50 (μM) values were reported in the final data table. The curve fittings were performed leaving free all the parameters. Any constrain were reported in the results table.

RS4-11 (MLL-AF4) = assay: LTP assay, CellTiterGlo, T4-T14 (Example 103), RS4-11; format: cell-based; details: for inhibition of cell viability (in words): RS4;11, LTP assay
Procedure: as §1, §2, §3, §4, §5, §6, §7, §8, §9, §10, §11

[1] = Homo sapiens, MV4-11, 96 h, MV4-11 (MLL-AF4), T4 (Day 4), read-out: IC50 T4 (Day 4)
[2] = Homo sapiens, MV4-11, MV4-11 (MLL-AF4), T7, read-out: IC50 T7
[3] = Homo sapiens, MV4-11, MV4-11 (MLL-AF4), T11, read-out: IC50 T11
[4] = Homo sapiens, MV4-11, MV4-11 (MLL-AF4), T14, read-out: IC50 T14
[5] = read-out: MOLM-13 (MLL-AF9) IC50
[6] = read-out: MOLM-13 (MLL-AF9) pIC50 (converted)
[7] = Homo sapiens, RS4-11, 96 h, RS4-11 (MLL-AF4), T4 (Day 4), read-out: IC50 T4 (Day 4)
[8] = Homo sapiens, RS4-11, RS4-11 (MLL-AF4), T7, read-out: IC50 T7
[9] = Homo sapiens, RS4-11, RS4-11 (MLL-AF4), T11, read-out: IC50 T11

Question: For O=C(Cc1cc(-c2cccnc2)n[nH]1)Nc1ccc(-c2nc3c(N4CCOCC4)ncnc3[nH]2)cc1 [Compound 12, N-{4-[6-(morpholin-4-yl)-9H-purin-8-yl]phenyl}-2-[3-(pyridin-3-yl)-1H-pyrazol-5-yl]acetamide], which IC50 (MV4-11 (MLL-AF4); [1]) is on record?
Answer: 1550 nM

Question: And the IC50 (MV4-11 (MLL-AF4); [2])?
Answer: 1260 nM

Question: And the IC50 (MV4-11 (MLL-AF4); [3])?
Answer: 850 nM

Question: What about the IC50 (MV4-11 (MLL-AF4); [4]) of the same compound?
Answer: 870 nM

Question: And the “inhibition of cell viability (in words)” value (MV4-11 (MLL-AF4))?
Answer: partial effect

Question: And the IC50 (MOLM-13 (MLL-AF9); [5])?
Answer: ~710 nM

Question: What about the IC50 (MOLM-13 (MLL-AF9); [6]) of the same compound?
Answer: ~708 nM

Question: And the “inhibition of cell viability (in words)” value (MOLM-13 (MLL-AF9); up to 20 μM)?
Answer: slightly active

Question: What about the IC50 (RS4-11 (MLL-AF4); [7]) of the same compound?
Answer: 580 nM

Question: And the IC50 (RS4-11 (MLL-AF4); [8])?
Answer: 420 nM

Question: And the IC50 (RS4-11 (MLL-AF4); [9])?
Answer: 260 nM

Question: And the “inhibition of cell viability (in words)” value (RS4-11 (MLL-AF4))?
Answer: fully inhibited the cell viability

Question: What does the source list for O=C(Nc1ccc(-c2cc3c(N4CCOCC4)ncnc3[nH]2)cc1)Nc1cc(-c2cccnc2)n[nH]1 [Compound 9, 1-{4-[4-(morpholin-4-yl)-7H-pyrrolo[2,3-d]pyrimidin-6-yl]phenyl}-3-[3-(pyridin-3-yl)-1H-pyrazol-5-yl]urea]?
Answer: IC50 (MOLM-13 (MLL-AF9); [5]): 320 nM; IC50 (MOLM-13 (MLL-AF9); [6]): 324 nM; MOLM-13 (MLL-AF9) % max (MOLM-13 (MLL-AF9)): 94%

Question: With Cn1nc(-c2cccnc2)cc1CC(=O)Nc1ccc(-c2cc3c(N4CCOCC4)ncnc3[nH]2)cc1 [Compound 11, 2-[1-methyl-3-(pyridin-3-yl)-1H-pyrazol-5-yl]-N-{4-[4-(morpholin-4-yl)-7H-pyrrolo[2,3-d]pyrimidin-6-yl]phenyl}acetamide] as the compound, how does the IC50 (MV4-11 (MLL-AF4); [1]) read?
Answer: 650 nM

Question: And the IC50 (MV4-11 (MLL-AF4); [2])?
Answer: 500 nM

Question: And the IC50 (MV4-11 (MLL-AF4); [3])?
Answer: 420 nM

Question: And the IC50 (MV4-11 (MLL-AF4); [4])?
Answer: 310 nM

Question: What about the IC50 (MV4-11 (MLL-AF4); MV4-11 (MLL-AF4), T4 (Day 4), read-out: IC50 T4 (Day 4)) of the same compound?
Answer: 646 nM

Question: And the IC50 (MV4-11 (MLL-AF4); MV4-11 (MLL-AF4), T7, read-out: IC50 T7)?
Answer: 501 nM

Question: What about the “inhibition of cell viability (in words)” value (MV4-11 (MLL-AF4)) of the same compound?
Answer: fully inhibited cell viability

Question: And the IC50 (MOLM-13 (MLL-AF9); [5])?
Answer: 260 nM

Question: What about the IC50 (MOLM-13 (MLL-AF9); [6]) of the same compound?
Answer: 257 nM

Question: What about the “MOLM-13 (MLL-AF9) % max” value (MOLM-13 (MLL-AF9)) of the same compound?
Answer: 95%

Question: And the IC50 (RS4-11 (MLL-AF4); [7])?
Answer: 1230 nM

Question: And the IC50 (RS4-11 (MLL-AF4); [8])?
Answer: 850 nM

Question: What about the IC50 (RS4-11 (MLL-AF4); [9]) of the same compound?
Answer: 110 nM

Question: What about the IC50 (RS4-11 (MLL-AF4); RS4-11 (MLL-AF4), T7, read-out: IC50 T7) of the same compound?
Answer: 851 nM

Question: What about the “inhibition of cell viability (in words)” value (RS4-11 (MLL-AF4)) of the same compound?
Answer: fully inhibited cell viability
